Legend:
[1] = system: Mycobacterium tuberculosis; experiment: Antitubercular activity against actively growing Mycobacterium tuberculosis H37Rv by microplate alamar blue assay; format: functional
[2] = system: Mycobacterium tuberculosis; experiment: Antitubercular activity against non-replicating Mycobacterium tuberculosis H37Rv by LORA; format: functional
Vero = experiment: Cytotoxicity against Vero cells after 3 days; format: cell-based; conditions: Chlorocebus sabaeus, 72 h

Row | SMILES | MIC [1] [µM] | MIC [2] [µM] | IC50 (Vero) [µM]
1 | C[N+](C)(CCCN1c2ccccc2Sc2ccc(Cl)cc21)Cc1ccc([N+](=O)[O-])cc1 | 12.3 | 27.5 | 
2 | CC(CN1c2ccccc2Sc2ccccc21)[N+](C)(C)Cc1ccc([N+](=O)[O-])cc1 (stereo unspecified) | 20.7 | > 128 | 
3 | C[N+](C)(CCCN1c2ccccc2Sc2ccccc21)Cc1ccc(Cl)cc1 | 9.31 | 15.4 | > 64
4 | C[N+](C)(CCCN1c2ccccc2Sc2ccccc21)Cc1ccccc1Cl | 14.3 | 24.6 | 
5 | C[N+](C)(CCCN1c2ccccc2Sc2ccccc21)Cc1ccc(F)cc1 | 14.6 | 32.9 | 
6 | COc1ccc(C[N+](C)(C)C(C)CN2c3ccccc3Sc3ccccc32)cc1 (stereo unspecified) | 14.4 | 105 | 
7 | Cc1ccc(C[N+](C)(C)CCCN2c3ccccc3Sc3ccccc32)cc1 | 9.9 | 15 | > 128
8 | C[N+](C)(CCCN1c2ccccc2Sc2ccc(Cl)cc21)Cc1ccccc1 | 7.33 | 11.1 | > 128
9 | C[N+](C)(CCCN1c2ccccc2Sc2ccc(C(F)(F)F)cc21)Cc1ccccc1Cl | 7.3 | 7.5 | > 128
10 | C[N+](C)(CCCN1c2ccccc2Sc2ccc(C(F)(F)F)cc21)Cc1ccc(F)cc1 | 6.4 | 10 | > 128
11 | C[N+](C)(CCCN1c2ccccc2Sc2ccc(Cl)cc21)Cc1cccc(Cl)c1 | 4.5 | 6.7 | > 128
12 | C[N+](C)(CCCN1c2ccccc2Sc2ccc(Cl)cc21)Cc1ccc(F)cc1 | 7.6 | 13.7 | > 128
13 | Cc1ccc(C[N+](C)(C)CCCN2c3ccccc3Sc3ccc(C(F)(F)F)cc32)cc1 | 6.8 | 6.9 | > 128
14 | CC(CN1c2ccccc2Sc2ccccc21)[N+](C)(C)Cc1ccccc1 (stereo unspecified) | 31.6 | 99.7 | 
15 | C[N+](C)(CCCN1c2ccccc2Sc2ccc(C(F)(F)F)cc21)Cc1ccc(Cl)cc1 | 3.81 | 6.1 | > 128
16 | C[N+](C)(CCCN1c2ccccc2Sc2ccc(Cl)cc21)Cc1ccc(Cl)cc1 | 6.06 | 6.7 | > 128
17 | C[N+](C)(CCCN1c2ccccc2Sc2ccc(Cl)cc21)Cc1ccccc1Cl | 5.6 | 7.6 | > 128
18 | Cc1ccc(C[N+](C)(C)CCCN2c3ccccc3Sc3ccc(Cl)cc32)cc1 | 4.7 | 7.5 | > 128
19 | C[N+](C)(CCCN1c2ccccc2Sc2ccccc21)Cc1cccc(Cl)c1 | 7.5 | 13 | > 128
20 | Cc1ccc(C[N+](C)(C)C(C)CN2c3ccccc3Sc3ccccc32)cc1 (stereo unspecified) | 12.1 | 34.7 | 
21 | C[N+](C)(CCCN1c2ccccc2Sc2ccc(C(F)(F)F)cc21)Cc1cccc(Cl)c1 | 3.8 | 5.8 | > 128
22 | COc1ccc(C[N+](C)(C)CCCN2c3ccccc3Sc3ccc(Cl)cc32)cc1 | 8.5 | 11.9 | > 128
23 | C=CC[N+](C)(C)CCCN1c2ccccc2Sc2ccc(Cl)cc21 | 30.6 | 106 | 
